Source: patent publication US9944618B2, “Inhibiting neurotransmitter reuptake” (Mayo Foundation for Medical Education and Research, priority 2013, dated 2018)
Where two headings read alike, the source gives them in different places.

What was measured:
[1] = target: hERG (Homo sapiens (Human), UniProt Q12809); assay: Human ERG (hERG) assay, hERG currents in hERG-expressing CHO cells; format: cell-based
Source text: The voltage-dependent potassium channel encoded by the human ether-a-go-go-related gene (hERG) is believed to play a key role in repolarisation of the ventricular cardiac action potential. Changes in its activity, caused either by inherited mutations of the gene sequence or pharmacological modification, can lead to prolongation of action potential duration. This can lead to prolongation of the QT interval recorded in man on an electrocardiogram and to a potentially fatal cardiac arrhythmia known as Torsades de Pointes.
hERG currents were recorded from hERG-expressing CHO cells. The biophysical and pharmacological characterization of the hERG currents in these cells was performed.

[2] = target: human norepinephrine transporter (Homo sapiens (Human), UniProt P23975); assay: Human NET (norepinephrine transporter) uptake assay; format: cell-based; settings: read-out: hNET Ki
human norepinephrine transporter, sequence (P23975 whole entry): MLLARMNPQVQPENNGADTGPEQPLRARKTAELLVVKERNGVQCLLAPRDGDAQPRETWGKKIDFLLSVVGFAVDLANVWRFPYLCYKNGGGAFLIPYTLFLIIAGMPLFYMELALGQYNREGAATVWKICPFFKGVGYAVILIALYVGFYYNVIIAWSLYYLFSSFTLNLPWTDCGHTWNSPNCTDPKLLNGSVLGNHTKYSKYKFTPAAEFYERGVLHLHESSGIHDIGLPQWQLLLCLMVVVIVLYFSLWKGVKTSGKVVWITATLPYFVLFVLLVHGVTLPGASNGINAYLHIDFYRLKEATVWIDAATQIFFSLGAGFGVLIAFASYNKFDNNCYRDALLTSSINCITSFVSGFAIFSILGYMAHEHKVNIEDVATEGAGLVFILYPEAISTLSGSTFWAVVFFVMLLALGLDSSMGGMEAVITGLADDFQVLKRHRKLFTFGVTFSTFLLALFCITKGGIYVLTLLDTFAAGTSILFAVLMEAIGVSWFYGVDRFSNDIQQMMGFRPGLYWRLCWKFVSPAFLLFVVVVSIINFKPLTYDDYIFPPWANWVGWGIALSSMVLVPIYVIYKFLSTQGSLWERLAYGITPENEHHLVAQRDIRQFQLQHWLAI
In short: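 HEK293F cells transfected with human NET were thawed, plated at about 60,000 cells/well and held at 37 °C for at least 3 h. Compounds came from 10 mM DMSO stocks, with nomifensine as control, in 1×HBSS/0.02 M HEPES. Uptake was followed with a neurotransmitter transporter dye, dosed as % of vendor reconstitution, in triplicate.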

[3] = target: human serotonin transporter (Homo sapiens (Human), UniProt P31645); assay: Human SERT (serotonin transporter) uptake assay; format: cell-based; settings: read-out: hSERT Ki
human serotonin transporter, sequence (P31645 whole entry): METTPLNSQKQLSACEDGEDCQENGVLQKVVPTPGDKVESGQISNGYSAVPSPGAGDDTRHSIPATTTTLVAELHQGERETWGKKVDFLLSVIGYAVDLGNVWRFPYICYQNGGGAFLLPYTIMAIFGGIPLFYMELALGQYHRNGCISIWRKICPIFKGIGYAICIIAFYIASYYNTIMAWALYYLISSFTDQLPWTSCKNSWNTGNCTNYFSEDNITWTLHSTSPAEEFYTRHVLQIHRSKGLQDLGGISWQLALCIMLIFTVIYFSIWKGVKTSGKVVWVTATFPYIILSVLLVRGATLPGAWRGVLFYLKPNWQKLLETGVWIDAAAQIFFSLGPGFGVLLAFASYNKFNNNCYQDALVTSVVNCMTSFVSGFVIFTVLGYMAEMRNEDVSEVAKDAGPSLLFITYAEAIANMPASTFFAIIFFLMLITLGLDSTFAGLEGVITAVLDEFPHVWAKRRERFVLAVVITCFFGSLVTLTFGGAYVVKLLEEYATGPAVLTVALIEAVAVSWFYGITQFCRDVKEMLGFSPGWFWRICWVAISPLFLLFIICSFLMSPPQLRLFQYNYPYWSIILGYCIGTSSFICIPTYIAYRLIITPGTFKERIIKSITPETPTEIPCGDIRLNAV
Protocol: This protocol was designed to measure inhibition of uptake by the human serotonin transporter. […] The Assay Buffer (AB) was […] and 0.02 M HEPES.
The HEK293F cells were transfected with the human serotonin transporter and frozen in 1 mL aliquots at about 1E+07 cells/mL. On the day of the experiment, the cells were removed from −80° C. or liquid nitrogen and thawed in a room temperature water bath. The cells were dilute to about 1-2E+06 with Freestyle medium. A 1 mL sample (1:2 dilution) was prepared, and the cells were counted. The cells were spun at 1100 rpm for 5 minutes, and the medium was aspirated off. The cells were resuspend in medium at 1.5E+06 cells/mL for about 60,000 cells per well. 40 μL of cells were dispensed per well in the Biocoat plates. The plates were spun at 1100 rpm for 1 minute to improve homogeneity of the cell layer and were incubated at 37° C. for a minimum of 3 hours.
12 μL of test compound (10 mM) in DMSO was added to the wells, and nomifensine was used as a control. Fluoxetine (final assay concentration of 10 μM) was used for background signal. The neurotransmitter transporter dye was prepared in AB prior to use.
Due to the proprietary nature of the dye formulation, all dye concentrations were expressed as a percentage of the vendor-recommended dye reconstitution. Thus, the above calculations were valid when both [dye] and Km were expressed in the same units (%). Compounds were tested in triplicate (n=3).

[4] = target: human dopamine transporter (Homo sapiens (Human), UniProt Q01959); assay: Human DAT (dopamine transporter) uptake assay; format: cell-based; settings: read-out: hDAT Ki
human dopamine transporter, sequence (Q01959 whole entry): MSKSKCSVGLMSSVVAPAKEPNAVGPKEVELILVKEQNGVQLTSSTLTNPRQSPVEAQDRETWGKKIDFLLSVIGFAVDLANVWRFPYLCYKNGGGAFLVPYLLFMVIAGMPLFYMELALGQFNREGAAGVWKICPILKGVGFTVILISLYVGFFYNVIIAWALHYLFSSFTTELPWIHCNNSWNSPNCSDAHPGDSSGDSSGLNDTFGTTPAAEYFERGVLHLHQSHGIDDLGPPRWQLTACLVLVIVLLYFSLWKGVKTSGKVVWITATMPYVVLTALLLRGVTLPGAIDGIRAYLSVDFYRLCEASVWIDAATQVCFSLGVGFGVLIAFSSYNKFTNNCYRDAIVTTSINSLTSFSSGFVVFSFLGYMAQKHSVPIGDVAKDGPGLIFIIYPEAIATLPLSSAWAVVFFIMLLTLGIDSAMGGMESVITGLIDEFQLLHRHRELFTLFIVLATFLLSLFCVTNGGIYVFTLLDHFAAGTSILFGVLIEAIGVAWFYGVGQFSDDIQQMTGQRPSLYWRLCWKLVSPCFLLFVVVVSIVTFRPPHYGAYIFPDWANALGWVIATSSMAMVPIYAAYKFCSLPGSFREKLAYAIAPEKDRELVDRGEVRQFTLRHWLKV
In short: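 Uptake inhibition was measured in HEK293F cells transfected with human DAT, plated at ~60,000 cells/well and settled ≥3 h at 37 °C. Compounds came from 10 mM DMSO stocks. Read-out was uptake of a fluorescent neurotransmitter transporter dye in HBSS with 0.02 M HEPES, with dye level given as % of vendor reconstitution; n=3.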

[5] = pKa of basic centres (Table 1); format: physicochemical
[6] = target: CYP2D6 (Homo sapiens (Human), UniProt P10635); assay: Cytochrome P450 inhibition assay, recombinant CYP2D6 (MAMC substrate); format: in vitro ADME; settings: recombinant enzyme
CYP2D6, sequence (P10635 whole entry): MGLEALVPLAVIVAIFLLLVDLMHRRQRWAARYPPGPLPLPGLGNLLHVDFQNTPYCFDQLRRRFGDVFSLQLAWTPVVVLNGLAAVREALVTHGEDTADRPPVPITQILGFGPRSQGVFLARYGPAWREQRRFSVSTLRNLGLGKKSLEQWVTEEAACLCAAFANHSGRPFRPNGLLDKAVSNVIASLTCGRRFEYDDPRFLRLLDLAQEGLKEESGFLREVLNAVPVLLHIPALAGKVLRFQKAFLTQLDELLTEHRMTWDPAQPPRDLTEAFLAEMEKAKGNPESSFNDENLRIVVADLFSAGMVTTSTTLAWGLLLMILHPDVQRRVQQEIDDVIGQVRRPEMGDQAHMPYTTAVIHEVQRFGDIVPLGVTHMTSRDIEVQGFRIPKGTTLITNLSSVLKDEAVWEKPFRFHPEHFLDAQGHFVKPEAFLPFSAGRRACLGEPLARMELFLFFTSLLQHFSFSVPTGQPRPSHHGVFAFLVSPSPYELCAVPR

[7] = target: CYP3A4 (Homo sapiens (Human), UniProt P08684); assay: Cytochrome P450 inhibition assay, recombinant CYP3A4 (BFC substrate); format: in vitro ADME; settings: recombinant enzyme
CYP3A4, sequence (P08684 whole entry): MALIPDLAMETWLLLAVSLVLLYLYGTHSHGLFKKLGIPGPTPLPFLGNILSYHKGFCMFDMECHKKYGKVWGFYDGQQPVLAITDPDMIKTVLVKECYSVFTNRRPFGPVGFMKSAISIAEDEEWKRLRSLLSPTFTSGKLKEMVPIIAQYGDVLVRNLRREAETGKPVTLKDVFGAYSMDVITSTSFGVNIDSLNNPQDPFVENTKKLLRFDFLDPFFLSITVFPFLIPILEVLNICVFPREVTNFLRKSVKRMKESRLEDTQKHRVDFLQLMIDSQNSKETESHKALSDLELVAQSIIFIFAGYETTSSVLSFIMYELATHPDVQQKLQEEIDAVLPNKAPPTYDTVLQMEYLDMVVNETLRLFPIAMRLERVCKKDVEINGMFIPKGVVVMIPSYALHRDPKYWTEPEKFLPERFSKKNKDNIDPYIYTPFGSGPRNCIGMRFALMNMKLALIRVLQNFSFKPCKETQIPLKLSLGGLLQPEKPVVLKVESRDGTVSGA

[8] = first base, e.g., an aliphatic primary, secondary, or tertiary amine, read-out: pKa (Base 1)
[9] = first base, e.g., an aliphatic primary, secondary, or tertiary amine
[10] = second base in the same molecule (if present), read-out: pKa (Base 2)
[11] = selected reference compounds, CHO cells
[12] = selected reference compounds, HEK293F cells, Cheng-Prusoff

hERG, sequence (Q12809 whole entry): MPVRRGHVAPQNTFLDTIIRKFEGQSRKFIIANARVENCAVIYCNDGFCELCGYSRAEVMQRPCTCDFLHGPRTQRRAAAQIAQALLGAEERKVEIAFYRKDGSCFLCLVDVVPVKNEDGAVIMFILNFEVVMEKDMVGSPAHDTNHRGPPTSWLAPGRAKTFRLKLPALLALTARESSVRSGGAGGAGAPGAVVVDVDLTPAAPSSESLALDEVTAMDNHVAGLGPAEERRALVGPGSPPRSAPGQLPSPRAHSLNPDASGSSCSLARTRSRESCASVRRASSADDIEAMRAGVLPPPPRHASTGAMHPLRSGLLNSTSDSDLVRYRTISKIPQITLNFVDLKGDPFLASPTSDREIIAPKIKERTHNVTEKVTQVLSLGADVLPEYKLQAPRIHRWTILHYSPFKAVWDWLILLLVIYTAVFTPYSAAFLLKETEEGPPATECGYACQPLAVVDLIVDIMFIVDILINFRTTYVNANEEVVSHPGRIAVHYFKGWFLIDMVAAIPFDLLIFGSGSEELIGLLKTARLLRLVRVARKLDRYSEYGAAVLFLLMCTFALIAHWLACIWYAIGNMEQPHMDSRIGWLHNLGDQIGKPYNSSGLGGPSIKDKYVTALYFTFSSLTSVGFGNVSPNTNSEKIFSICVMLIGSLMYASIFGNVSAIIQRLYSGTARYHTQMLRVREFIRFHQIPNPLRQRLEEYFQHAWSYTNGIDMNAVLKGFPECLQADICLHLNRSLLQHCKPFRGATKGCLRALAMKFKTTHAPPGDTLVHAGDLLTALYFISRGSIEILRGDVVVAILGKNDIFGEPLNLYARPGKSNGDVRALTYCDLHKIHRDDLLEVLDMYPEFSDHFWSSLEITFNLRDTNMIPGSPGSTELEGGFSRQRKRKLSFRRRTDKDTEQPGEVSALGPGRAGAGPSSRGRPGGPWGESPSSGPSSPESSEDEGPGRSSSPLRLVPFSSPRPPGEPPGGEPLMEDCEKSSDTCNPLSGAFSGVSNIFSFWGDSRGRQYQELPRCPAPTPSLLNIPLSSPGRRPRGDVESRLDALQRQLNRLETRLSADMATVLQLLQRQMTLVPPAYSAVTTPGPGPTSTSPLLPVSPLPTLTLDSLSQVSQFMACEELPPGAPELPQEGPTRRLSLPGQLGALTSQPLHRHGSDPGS

Row | Structure (SMILES) | Ki [2] | Ki [3] | Ki [4] | pKa [5, 8] | IC50 [6] | IC50 [7] | pKa [5, 10] | IC50 ([1]; hERG-expressing CHO cells) | pKa (Base 1) [5, 9] | IC50 [1, 11] | Ki [2, 12] | Ki [3, 12] | Ki [4, 12]
1 | c1ccc([C@@H]2OCCNC[C@H]2c2ccc3ccccc3c2)cc1 [Compound 64] | 7.2 nM | 11.3 nM | 9.4 nM | 9.3 | 5100 nM |  |  | 20 µM |  |  |  |  | 
2 | CNCC(Cc1ccccc1OC)c1ccc2ccccc2c1 (centres unmarked) [Compound 132] | 10.3 nM | 12.4 nM | 41.8 nM |  |  |  |  | 4.7 µM | 10.1 |  |  |  | 
3 | CNC[C@H](c1ccc(Cl)c(Cl)c1)[C@@H](O)c1ccccc1I [Compound 152] | 126 nM | 935 nM | 31.8 nM | 9.4 | 44 nM | 2 µM |  |  |  |  |  |  | 
4 | CNC[C@@H](c1ccc(Cl)c(Cl)c1)[C@@H](O)c1cccc(OC)n1 [Compound 157] | 88.4 nM | 140 nM | 53.4 nM | 9.2 | 580 nM | 20 µM |  |  |  |  |  |  | 
5 | CCc1cccc([C@@H](O)[C@H](CNC)c2ccc(Cl)c(Cl)c2)c1 [Compound 159] | 55.4 nM | 69.5 nM | 55.8 nM | 9.4 | 170 nM | 2.5 µM |  |  |  |  |  |  | 
6 | CNC[C@H](c1ccc(Cl)c(Cl)c1)[C@@H](O)c1cccc(Br)c1 [Compound 161] | 38.5 nM | 616 nM | 103 nM | 9.4 | 160 nM | 9.2 µM |  |  |  |  |  |  | 
7 | CNC[C@@H](c1ccc(Cl)c(Cl)c1)[C@@H](O)c1cccc(Br)c1 [Compound 162] | 108 nM | 806 nM | 110 nM | 9.4 | 790 nM | 4.9 µM |  |  |  |  |  |  | 
8 | CNC[C@H](c1ccc(Cl)c(Cl)c1)[C@@H](O)c1cccc(SC)c1 [Compound 163] | 80 nM | 192 nM | 110 nM | 9.4 | 730 nM | 14 µM |  |  |  |  |  |  | 
9 | CNC[C@H](c1ccc(Cl)c(Cl)c1)[C@H](O)c1cncc(OC)c1 [Compound 166] | 92.4 nM | 36.9 nM | 132 nM | 9.3 | 630 nM | 0.24 µM | 4.5 |  |  |  |  |  | 
10 | CNC[C@H](c1ccc(Cl)c(Cl)c1)[C@@H](O)c1ccccc1S(C)(=O)=O [Compound 170] | 306 nM | 2010 nM | 40 nM | 9.3 | 380 nM | 4.8 µM |  |  |  |  |  |  | 
11 | CNC[C@@H](c1ccc(Cl)c(Cl)c1)[C@@H](O)c1cccnc1OC [Compound 171] | 454 nM | 1850 nM | 92 nM | 9.2 | 2000 nM | 20 µM | 3.2 |  |  |  |  |  | 
12 | CNC[C@H](c1ccc2ccccc2c1)[C@H](O)c1ccccc1 [compound 173] |  |  |  |  |  |  |  |  |  | 8.8 µM | 0.5 nM | 1.2 nM | 4.6 nM
13 | CNC[C@@H](c1ccc2ccccc2c1)[C@H](O)c1ccccc1 [compound 180] |  |  |  |  |  |  |  |  |  | 32 µM | 2.9 nM | 14.8 nM | 47.5 nM

The next lines start with results.

Row | Ki [2] | Ki [3] | Ki [4] | pKa [5, 8] | IC50 [6] | IC50 [7] | pKa [5, 10] | Structure (SMILES) | IC50 ([1]; hERG-expressing CHO cells) | pKa (Base 1) [5, 9] | IC50 [1, 11] | Ki [2, 12] | Ki [3, 12] | Ki [4, 12]
14 | 2.2 nM | 22.7 nM | 106 nM | 9.9 | 320 nM |  |  | CNCC(c1ccc2ccccc2c1)[C@H](CO)c1ccccc1 (single isomer, unassigned) [Compound 25] | 33 µM |  |  |  |  | 
15 | 0.7 nM | 1.9 nM | 20.7 nM | 9.6 | 1100 nM |  |  | CNC[C@H](c1ccc2ccccc2c1)[C@H](OCC(=O)NC)c1ccccc1 [Compound 1] | 33 µM |  |  |  |  | 
16 | 1 nM | 2.5 nM | 5.5 nM |  | 170 nM |  |  | CNCC(Cc1ccccc1CO)c1ccc2ccccc2c1 (centres unmarked) [Compound 2] | 15 µM | 10 |  |  |  | 
17 | 1.4 nM | 0.8 nM | 39.2 nM | 9.6 | 760 nM |  |  | CCNC(=O)CO[C@H](c1ccccc1)[C@H](CNC)c1ccc2ccccc2c1 [Compound 6] | 25 µM |  |  |  |  | 
18 | 1.8 nM | 0.4 nM | 31.9 nM | 9.6 | 330 nM |  |  | CNC[C@H](c1ccc2ccccc2c1)[C@H](OCc1cc(C)on1)c1ccccc1 [Compound 18] | 4.6 µM |  |  |  |  | 
19 | 1.9 nM | 3.2 nM | 36.1 nM | 9.6 |  |  |  | CNC[C@H](c1ccc2ccccc2c1)[C@H](OCc1cc(C)no1)c1ccccc1 [Compound 20] | 4.7 µM |  |  |  |  | 
20 | 2.4 nM | 1.1 nM | 37.2 nM | 9.6 | 650 nM |  |  | CCCNC(=O)CO[C@H](c1ccccc1)[C@H](CNC)c1ccc2ccccc2c1 [Compound 29] | 11 µM |  |  |  |  | 
21 | 2.4 nM | 1 nM | 14.3 nM | 9.6 |  |  |  | CNC[C@H](c1ccc2ccccc2c1)[C@H](OCC(=O)N1CCC1)c1ccccc1 [Compound 30] | 29 µM |  |  |  |  | 
22 | 2.7 nM | 1.4 nM | 13.2 nM | 9.6 | 550 nM |  |  | CNC[C@H](c1ccc2ccccc2c1)[C@H](OCC(=O)N(C)C)c1ccccc1 [Compound 33] | 33 µM |  |  |  |  | 
23 | 2.8 nM | 3.7 nM | 70.8 nM | 9.6 | 320 nM |  |  | CCOC(=O)CO[C@H](c1ccccc1)[C@H](CNC)c1ccc2ccccc2c1 [Compound 35] | 13 µM |  |  |  |  | 
24 | 3.8 nM | 2.9 nM | 36.5 nM | 9.6 | 800 nM |  |  | CNC[C@H](c1ccc2ccccc2c1)[C@H](OCC(=O)N1CCCC1)c1ccccc1 [Compound 50] | 17 µM |  |  |  |  | 
25 |  |  |  | 9.3 | 790 nM | 20 µM |  | CNCC(c1ccc(F)c(Cl)c1)[C@H](O)c1ccccc1 (some centres unmarked) [Compound 73] | 31 µM |  |  |  |  | 
26 | 12.4 nM | 3 nM | 44.7 nM | 8.2 | 5700 nM |  |  | CN1CCO[C@H](c2ccccc2)[C@@H](c2ccc3ccccc3c2)C1 [Compound 77] | 4.5 µM |  |  |  |  | 
27 | 15.7 nM |  | 46.7 nM | 9 |  |  |  | CN(C)C[C@H](c1ccc2ccccc2c1)[C@H](O)c1ccccc1 [Compound 83] | 4.3 µM |  |  |  |  | 
28 | 22.6 nM | 25.4 nM | 86.2 nM | 10 | 590 nM |  |  | CNCC(Cc1ccccc1CO)c1ccc2ccccc2c1 (centres unmarked) [Compound 90] | 12 µM |  |  |  |  | 
29 | 29.5 nM | 1.1 nM | 137 nM | 10.1 | 1200 nM |  |  | CNC[C@H](C[C@H](O)c1ccccc1)c1ccc2ccccc2c1 [Compound 93] | 13 µM |  |  |  |  | 
30 | 171 nM | 661 nM | 27 nM | 9.4 |  |  |  | CNC[C@@H](c1ccc(Cl)c(Cl)c1)[C@@H](O)c1ccccc1 [Compound 114] | 11 µM |  |  |  |  | 
31 | 13.8 nM | 208 nM | 95.3 nM | 9.6 | 660 nM | 20 µM |  | CNC[C@@H](c1ccc2ccccc2c1)[C@H](O)c1cc(F)cc(F)c1 [Compound 142] |  |  |  |  |  | 
32 | 212 nM | 268 nM | 146 nM | 9.6 | 1300 nM | 20 µM |  | CNCC(c1ccc2ccccc2c1)[C@@H](O)c1ccc(Cl)nc1 (some centres unmarked) [Compound 169] |  |  |  |  |  | 
